One assay addresses T1, human recombinant Btk (Homo sapiens, UniProt Q06187).
T1 construct: purchased Invitrogen Corporation
In words: Human Recombinant Btk Enzyme Assay (LLE_BTK). Format: biochemical. As to the method:
Human Recombinant Btk Enzyme Assay
To V-bottom 384-well plates were added test compounds, human recombinant Btk (1 nM, Invitrogen Corporation), fluoresceinated peptide (1.5 μM), ATP (20 μM), and assay buffer (20 mM HEPES pH 7.4, 10 mM MgCl2, 0.015% Brij35 and 4 mM DTT in 1.6% DMSO), with a final volume of 30 μL. After incubating at room temperature for 60 min, the reaction was terminated by adding 45 μl of 35 mM EDTA to each sample. The reaction mixture was analyzed on the Caliper LABCHIP® 3000 (Caliper, Hopkinton, Mass.) by electrophoretic separation of the fluorescent substrate and phosphorylated product. Inhibition data were calculated by comparison to no enzyme control reactions for 100% inhibition and no inhibitor controls for 0% inhibition. Dose response curves were generated to determine the concentration required inhibiting 50% of kinase activity (IC50). Compounds were dissolved at 10 mM in dimethylsulfoxide (DMSO) and evaluated at eleven concentrations.
Using this assay, the following IC50 values derived by non-linear regression analysis were determined and compared to those values of certain compounds in U.S. Publication No. 2007/078136 and U.S. Publication No. 2008/045536.

The test system of assay [1] is Ramos B cells with beta-lactamase reporter gene under control of an NFAT response element. In words: NFAT-bla RA1 Reporter Assay (Ramos-NFAT). The following applies: Homo sapiens, Ramos, read-out: IMM Ramos-NFAT (IC50). Format: cell-based, human. As to the method:
NFAT-bla RA1 Reporter Assay
Ramos B cells containing a stable integration of a beta-lactamase reporter gene under the control of an NFAT response element (NFAT-bla RA1, Invitrogen, K1434) at a density of 100×10^3 cells/well were incubated with test compounds at 37° C. for 30 min prior to stimulation with F(ab′)2 anti-human IgM (Jackson ImmunoResearch, 109-006-129) at 2.5 μg/ml for 4.5 hrs at 37° C. After stimulation, LiveBLAzer-FRET B/G substrate (CCF2/AM, or CCF4/AM, Invitrogen) was added to each well and incubated for 90 min at room temperature in the dark. Assay plates were read on an LJL Analyst, with raw emission values subtracted from a media-only blank containing substrate in assay media (no cells). The ratios of 460 nm/530 nm emission (405 nm excitation) were used to calculate the amount of stimulation.
(A reporter such as luciferase makes a cellular process visible.)

Our source for the IC50 values is US8586751B2, “Nicotinamide compounds useful as kinase modulators” (Bristol-Myers Squibb Company, priority 2009, dated 2013).

The IC50 is the point on the concentration scale where inhibition reaches its midpoint.

T1 sequence (Q06187 whole entry): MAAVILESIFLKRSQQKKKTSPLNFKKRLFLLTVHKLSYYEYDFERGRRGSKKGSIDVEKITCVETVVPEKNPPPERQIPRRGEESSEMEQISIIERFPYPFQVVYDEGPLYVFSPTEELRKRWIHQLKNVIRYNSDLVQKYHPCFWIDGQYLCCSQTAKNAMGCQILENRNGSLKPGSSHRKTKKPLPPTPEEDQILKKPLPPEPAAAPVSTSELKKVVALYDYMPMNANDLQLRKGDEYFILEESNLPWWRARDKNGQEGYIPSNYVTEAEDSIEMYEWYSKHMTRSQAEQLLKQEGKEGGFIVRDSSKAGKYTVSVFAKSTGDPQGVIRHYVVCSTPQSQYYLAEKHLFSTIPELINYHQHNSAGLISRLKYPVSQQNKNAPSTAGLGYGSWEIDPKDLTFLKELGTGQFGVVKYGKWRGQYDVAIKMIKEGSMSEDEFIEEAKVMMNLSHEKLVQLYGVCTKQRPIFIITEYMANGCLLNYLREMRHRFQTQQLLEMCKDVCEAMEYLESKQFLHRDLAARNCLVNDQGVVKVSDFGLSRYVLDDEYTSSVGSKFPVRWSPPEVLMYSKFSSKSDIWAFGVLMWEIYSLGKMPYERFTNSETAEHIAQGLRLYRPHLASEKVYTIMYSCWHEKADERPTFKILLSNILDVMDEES

Consider `NC(=O)c1cc(F)c(N2CCC[C@@H](NC(=O)Nc3nccs3)C2)nc1Nc1ccc(N2CCOCC2)cc1` [Example 421], for which the results for the IC50 (at human recombinant Btk; in assay [1]) were 2 nM and 40 nM, respectively.
Taken in the same sequence, the figures for `CN1CCCC(c2ccc(Nc3nc(N4CCC[C@@H](NC(=O)Nc5nnc(C(F)(F)F)s5)C4)c(F)cc3C(N)=O)cc2)C1` (stereo partly drawn) [Example 559] were 2 nM and 70 nM.
For `COc1ccc([C@H](C)N[C@@H]2C=C(c3nc(Nc4ccc(N5CCOCC5)cc4)c(C(N)=O)cc3F)CCC2)cc1` [Example 437], in that order: 740 nM and 2900 nM.
For `CC(C)(C)OC(=O)N1CCC(O)(c2ccc(Nc3nc(N4CCCCC4)c(F)cc3C(N)=O)cc2)C(C)(C)C1` (stereo not drawn) [Example 524], in that order: 1600 nM and 5700 nM.
With `CN(C)CCc1ccc(Nc2nc(N3CCC[C@@H](NC(=O)Nc4nncs4)C3)c(F)cc2C(N)=O)cc1` [Example 462], the IC50 at human recombinant Btk amounted to 2 nM; in assay [1], 250 nM.
For `CN1CCN(c2ccc(Nc3nc(N4CCC[C@@H](N5CCCC5=O)C4)c(F)cc3C(N)=O)cc2F)CC1` [Example 482], in that order: 2 nM and 170 nM.
Taken in the same sequence, the figures for `NC(=O)c1ccc(-c2cccc3c2CCNC3)nc1Nc1ccc(-c2cnco2)cc1` [Example 345] were 900 nM and 920 nM.
Taken in the same sequence, the figures for `CN1CCC(c2ccc(Nc3nc(N4CCC[C@@H](NC(=O)c5ccc(F)cc5)C4)c(F)cc3C(N)=O)cc2)CC1` [Example 491] were 2 nM and 200 nM.
Regarding `CC(=O)N1CCc2c(cccc2-c2ccc(C(N)=O)c(Nc3ccc(-c4cnco4)cc3)n2)C1` [Example 347], the IC50 was 2000 nM on human recombinant Btk and 10000 nM in assay [1].
Taken in the same sequence, the figures for `CN1CCCC(c2ccc(Nc3nc(N4CCC[C@@H](NC(=O)Nc5nnc(C(C)(C)C)s5)C4)c(F)cc3C(N)=O)cc2)C1` (stereo partly drawn) [Example 561] were 0.9 nM and 140 nM.
Taken in the same sequence, the figures for `CN1CCC(C)(c2ccc(Nc3nc(N4CCCC5(CC(c6ccccc6)=NO5)C4)c(F)cc3C(N)=O)cc2)CC1` (stereo not drawn) [Example 571] were 2 nM and 150 nM.
In the case of `CN1CCN(c2ccc(Nc3nc(N4CCC[C@@H](NC(=O)Nc5nccs5)C4)c(F)cc3C(N)=O)cc2F)CC1` [Example 480], the IC50 stood at 0.2 nM at human recombinant Btk and 40 nM in assay [1].
For `CN1CCCC(c2ccc(Nc3nc(N4CCC[C@@H](NC(=O)Nc5ncc(F)s5)C4)c(F)cc3C(N)=O)cc2)C1` (stereo partly drawn) [Example 564], in that order: 1 nM and 100 nM.
For `CS(=O)(=O)c1ccc(Nc2nc(N3CCC[C@@H](NC(=O)Nc4nccs4)C3)c(F)cc2C(N)=O)cc1` [Example 546], in that order: 3 nM and 230 nM.
Taken in the same sequence, the figures for `NC(=O)c1cc(F)c(N2CCC[C@@H](NC(=O)Nc3nccs3)C2)nc1Nc1ccc(C2CCOCC2)cc1` [Example 555] were 3 nM and 190 nM.
